Measurements: ChEMBL document CHEMBL3217631, “Potent sirtuin inhibition bestowed by l-2-amino-7-carboxamidoheptanoic acid (l-ACAH), a N-acetyl-lysine analog” (Medchemcomm, 2011)
The source made the active and inactive calls. The rule behind the calls is not given here. Square brackets hold non-standard residues; d marks the D form. Peptide text beside a SMILES is read from it. Asu = N[C@@H](CCCCCC(=O)O)C(=O)O

What was measured:
[1] = target: T1, NAD-dependent protein deacetylase sirtuin-1 (Homo sapiens, UniProt Q96EB6); test: Inhibition of lysine deacetylase activity of human full length GST-tagged SIRT1 expressed in Escherichia coli using H2N-HK-AcK-LM-COOH as substrate incubated with enzyme for 5 mins by reverse-phase HPLC analysis
T1 sequence (Q96EB6 whole entry): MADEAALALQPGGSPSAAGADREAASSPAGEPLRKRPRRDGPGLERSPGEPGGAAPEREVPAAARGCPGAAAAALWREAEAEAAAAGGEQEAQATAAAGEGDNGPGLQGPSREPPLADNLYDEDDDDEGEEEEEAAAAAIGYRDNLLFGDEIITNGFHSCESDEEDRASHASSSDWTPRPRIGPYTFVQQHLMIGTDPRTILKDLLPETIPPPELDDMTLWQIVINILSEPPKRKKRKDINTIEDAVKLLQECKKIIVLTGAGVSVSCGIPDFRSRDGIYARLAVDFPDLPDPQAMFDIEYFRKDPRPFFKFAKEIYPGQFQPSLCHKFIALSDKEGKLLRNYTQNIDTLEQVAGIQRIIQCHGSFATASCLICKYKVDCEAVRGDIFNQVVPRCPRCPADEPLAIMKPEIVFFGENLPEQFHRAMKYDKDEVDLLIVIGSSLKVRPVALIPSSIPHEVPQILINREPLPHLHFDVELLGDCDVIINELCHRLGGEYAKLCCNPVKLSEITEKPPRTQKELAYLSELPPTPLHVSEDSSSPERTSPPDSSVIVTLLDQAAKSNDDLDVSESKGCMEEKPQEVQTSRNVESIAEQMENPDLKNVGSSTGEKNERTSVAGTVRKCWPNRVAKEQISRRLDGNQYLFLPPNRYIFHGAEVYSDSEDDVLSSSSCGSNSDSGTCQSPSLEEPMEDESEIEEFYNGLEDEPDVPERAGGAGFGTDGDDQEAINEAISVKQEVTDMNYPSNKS

[2] = target: T2, NAD-dependent protein deacetylase sirtuin-1 (Homo sapiens) (UniProt Q96EB6); test: Mechanism based inhibition of human full length GST-tagged SIRT1 expressed in Escherichia coli assessed as longer-lived stabilized catalytic intermediate 2 formation at 0.4 mM after 30 mins by MALDI-MS analysis in presence of NAD+ and 20% (v/v) methanol
T2 sequence (whole entry): T1 sequence (Q96EB6 whole entry)

[3] = target: T1, NAD-dependent protein deacetylase sirtuin-1; test: Competitive inhibition of human full length GST-tagged SIRT1 expressed in Escherichia coli using H2N-HK-AcK-LM-COOH as substrate assessed as enzymatic deacetylation product formation incubated with enzyme for 5 mins by double reciprocal plot analysis
[4] = target: T2, NAD-dependent protein deacetylase sirtuin-1 (Homo sapiens); test: Mechanism based inhibition of human full length GST-tagged SIRT1 expressed in Escherichia coli assessed as longer-lived stabilized catalytic intermediate 3 formation at 0.4 mM after 30 mins by MALDI-MS analysis in presence of NAD+ and 63% (v/v) H218O
[5] = target: T2, NAD-dependent protein deacetylase sirtuin-1 (Homo sapiens); test: Time-dependent inhibition of human full length GST-tagged SIRT1 expressed in Escherichia coli using H2N-HK-AcK-LM-COOH as substrate assessed as enzymatic deacetylation product formation at 5 to 10 uM by reverse-phase HPLC analysis
[6] = target: T3, NAD-dependent protein deacetylase (Thermotoga maritima (strain ATCC 43589 / MSB8 / DSM 3109 / JCM 10099)) (UniProt Q9WYW0); test: Mechanism based inhibition of Thermotoga maritima Sir2Tm assessed as longer-lived stabilized catalytic intermediate formation at 0.4 mM after 30 mins by MALDI-MS analysis in presence of NAD+
T3 sequence (whole entry): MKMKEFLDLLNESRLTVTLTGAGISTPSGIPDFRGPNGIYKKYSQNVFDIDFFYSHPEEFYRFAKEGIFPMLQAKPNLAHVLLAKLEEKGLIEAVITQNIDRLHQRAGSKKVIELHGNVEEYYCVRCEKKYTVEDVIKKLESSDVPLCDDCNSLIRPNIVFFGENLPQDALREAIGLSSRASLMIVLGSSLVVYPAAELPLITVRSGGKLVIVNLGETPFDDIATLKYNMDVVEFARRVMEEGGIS

[7] = target: T2, NAD-dependent protein deacetylase sirtuin-1 (Homo sapiens); test: Mechanism based inhibition of human full length GST-tagged SIRT1 expressed in Escherichia coli assessed as longer-lived stabilized catalytic intermediate formation at 0.4 mM after 30 mins by MALDI-MS analysis in presence of NAD+
[8] = target: T2, NAD-dependent protein deacetylase sirtuin-1 (Homo sapiens); test: Irreversible inhibition of human full length GST-tagged SIRT1 expressed in Escherichia coli using H2N-HK-AcK-LM-COOH as substrate assessed as recovery of enzyme activity at 150 uM preincubated for 30 mins followed by rapid dilution of preformed enzyme-inhibitor complex measured after 2 to 30 mins by reverse-phase HPLC analysis
[9] = target: T2, NAD-dependent protein deacetylase sirtuin-1 (Homo sapiens); test: Inhibition of lysine deacetylase activity of human full length GST-tagged SIRT1 expressed in Escherichia coli using H2N-HK-AcK-LM-COOH as substrate at 500 uM incubated with enzyme for 5 mins by reverse-phase HPLC analysis
[10] = target: T2, NAD-dependent protein deacetylase sirtuin-1 (Homo sapiens); test: Inhibition of SIRT1 in human HCT116 cells assessed as enhancement of p53 acetylation at K382 position at 5 uM after 8 hrs by Western blot analysis; assay type: cell-based; details: HCT-116
[11] = target: T2, NAD-dependent protein deacetylase sirtuin-1 (Homo sapiens); test: Inhibition of SIRT1 in human HCT116 cells assessed as enhancement of p53 acetylation at K382 position after 8 hrs by Western blot analysis; assay type: cell-based; details: HCT-116
[12] = target: T2, NAD-dependent protein deacetylase sirtuin-1 (Homo sapiens); test: Inhibition of SIRT1 in human HCT116 cells assessed as enhancement of p53 acetylation at K382 position at 50 uM after 8 hrs by Western blot analysis; assay type: cell-based; details: HCT-116
[13] = target: T4, Histone deacetylase 8 (Homo sapiens) (UniProt Q9BY41); test: Inhibition of human full length HDAC8 using CH3CONH-RH-AcK-(AcK)-CONH2 as substrate assessed as enzymatic deacetylation product formation measured at 500 uM after 1 hr by HPLC analysis
T4 sequence (whole entry): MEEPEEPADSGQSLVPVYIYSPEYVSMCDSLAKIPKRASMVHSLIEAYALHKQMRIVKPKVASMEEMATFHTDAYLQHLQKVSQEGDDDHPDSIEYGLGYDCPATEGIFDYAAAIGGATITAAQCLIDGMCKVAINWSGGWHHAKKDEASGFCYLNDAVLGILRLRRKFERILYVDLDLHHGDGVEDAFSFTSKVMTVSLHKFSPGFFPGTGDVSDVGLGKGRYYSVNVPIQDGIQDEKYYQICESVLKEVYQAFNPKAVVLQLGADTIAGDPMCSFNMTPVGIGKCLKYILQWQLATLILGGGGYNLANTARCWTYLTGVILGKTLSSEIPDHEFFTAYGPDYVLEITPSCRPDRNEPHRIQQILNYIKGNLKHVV

NC(=O)CCCCC[C@H](NC(=O)OCc1ccccc1)C(=O)Nc1ccccc1
IC50 [1]: > 1000 µM

CSCC[C@H](NC(=O)[C@H](CC(C)C)NC(=O)[C@H](CCCCCC(N)=O)NC(=O)[C@H](CCCCN)NC(=O)[C@H](Cc1cnc[nH]1)NC(C)=O)C(N)=O (Ac-HK[Asu](NH2)LM-NH2)
inhibition [2]: Active | Ki [3]: 2.6 µM | IC50 [1]: 11.7 µM | inhibition [4]: Active | inhibition [5]: Active | inhibition [6]: Active | inhibition [7]: Active | Activity [8]: inactive

COC(=O)CCCCC[C@H](NC(=O)[C@H](CCCCN)NC(=O)[C@H](Cc1cnc[nH]1)NC(C)=O)C(=O)N[C@@H](CC(C)C)C(=O)N[C@@H](CCSC)C(N)=O (Ac-HK[Asu](OMe)LM-NH2)
inhibition [9]: inactive

CC(=O)NCCCC[C@H](NC(=O)[C@H](CCCCCC(N)=O)NC(=O)[C@H](CCCCNC(C)=O)NC(C)=O)C(N)=O (Ac-Lys(Ac)-[Asu](NH2)-Lys(Ac)-NH2)
Activity [10]: inactive | Activity [11]: Dose-dependent effect | Activity [12]: Active

CC(=O)NCCCC[C@H](NC(=O)[C@H](Cc1cnc[nH]1)NC(=O)[C@H](CCCNC(=N)N)NC(C)=O)C(=O)N[C@@H](CCCCCC(N)=O)C(N)=O (Ac-RHK(Ac)[Asu](NH2)-NH2)
inhibition [13]: 12%
